In patent US12594276B2, “Inhibitors of human immunodeficiency virus replication” (ViiV Healthcare UK (No.5) Limited, priority 2024, dated 2026):

Assays:
[1] = tested on: recombinant NL4-3 virus (nef section replaced with Renilla luciferase gene) in MT-2 cells; test: HIV cell culture assay (antiviral activity, luciferase readout); format: cell-based; details: Renilla, NL43, MT-2 cells infected for 4-5 days with recombinant NL4-3 Renilla luciferase virus
Outline: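 The reporter virus was produced by transfecting 293T cells with the NL4-3 nef/Renilla luciferase proviral clone. MT-2 cells were infected for 4–5 days with serial compound dilutions present. Luciferase was read with a live-cell substrate, and EC50 came from the exponential median-effect equation.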

[2] = Compound cytotoxicity, XTT-based colorimetric assay; format: cell-based; details: human; uninfected MT2 cells, day 4, XTT; read-out: CC50
Outline: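 Follows the antiviral assay procedure, but with uninfected MT2 cells. On day 4, cell viability is measured by XTT-based colorimetry, giving CC50 values.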

| SMILES | EC50 [1] [pM] | CC50 at 4 days [2] [pM] |
| --- | --- | --- |
| CC(C)[C@H]1CN(CCn2nc(NS(C)(=O)=O)c3c(Cl)ccc(-n4c([C@H](Cc5cc(F)cc(F)c5)NC(=O)Cn5nc(C6CC6)c6c5C[C@@H]5C[C@H]65)nc5nc(C6CCC(F)(F)CC6)ccc5c4=O)c32)CCO1 (atropisomer, axis not shown; (P)) [Example 434, N-[(1S)-1-[(3P)-3-(4-chloro-3-methanesulfonamido-1-{2-[(2S)-2-(propan-2-yl)morpholin-4-yl]ethyl}-1H-indazol-7-yl)-7-(4,4-difluorocyclohexyl)-4-oxo-3H,4H-pyrido[2,3-d]pyrimidin-2-yl]-2-(3,5-difluorophenyl)ethyl]-2-[(2S,4S)-9-cyclopropyl-7,8-diazatricyclo[4.3.0.0^2,^4]nona-1(6),8-dien-7-yl]acetamide] | 10 | > 20000 |
| CC(C)[C@@H]1CN(CCn2nc(NS(C)(=O)=O)c3c(Cl)ccc(-n4c([C@H](Cc5cc(F)cc(F)c5)NC(=O)Cn5nc(C6CC6)c6c5C[C@@H]5C[C@H]65)nc5nc(C6CCC(F)(F)CC6)ccc5c4=O)c32)CCO1 (atropisomer, axis not shown; (P)) [Example 435, N-[(1S)-1-[(3P)-3-(4-chloro-3-methanesulfonamido-1-{2-[(2R)-2-(propan-2-yl)morpholin-4-yl]ethyl}-1H-indazol-7-yl)-7-(4,4-difluorocyclohexyl)-4-oxo-3H,4H-pyrido[2,3-d]pyrimidin-2-yl]-2-(3,5-difluorophenyl)ethyl]-2-[(2S,4S)-9-cyclopropyl-7,8-diazatricyclo[4.3.0.0^2,^4]nona-1(6),8-dien-7-yl]acetamide] | 9 | > 20000 |
| Cc1cc(C2CCC(F)(F)CC2)nc2nc([C@H](Cc3cc(F)cc(F)c3)NC(=O)Cn3nc(C4CC4)c4c3C[C@@H]3C[C@H]43)n(-c3ccc(Cl)c4c(NS(C)(=O)=O)nn(CCN5C[C@@H](F)C[C@H](F)C5)c34)c(=O)c12 (atropisomer, axis not shown; (P)) [Example 444, N-[(1S)-1-[(3P)-3-(4-chloro-1-{2-[(3S,5S)-3,5-difluoropiperidin-1-yl]ethyl}-3-methanesulfonamido-1H-indazol-7-yl)-7-(4,4-difluorocyclohexyl)-5-methyl-4-oxo-3H,4H-pyrido[2,3-d]pyrimidin-2-yl]-2-(3,5-difluorophenyl)ethyl]-2-[(2S,4S)-9-cyclopropyl-7,8-diazatricyclo[4.3.0.0^2,^4]nona-1(6),8-dien-7-yl]acetamide] | 9 | > 20000 |
| Cc1cc(C2CCC(F)(F)CC2)nc2nc([C@H](Cc3cc(F)cc(F)c3)NC(=O)Cn3nc(C4CC4)c4c3C[C@@H]3C[C@H]43)n(-c3ccc(Cl)c4c(NS(C)(=O)=O)nn(CCN5CC6(CCC6)OC6(CCC6)C5)c34)c(=O)c12 (atropisomer, axis not shown; (P)) [Example 445, N-[(1S)-1-[(3P)-3-[4-chloro-3-methanesulfonamido-1-(2-{5-oxa-11-azadispiro[3.1.3^6.3^4]dodecan-11-yl}ethyl)-1H-indazol-7-yl]-7-(4,4-difluorocyclohexyl)-5-methyl-4-oxo-3H,4H-pyrido[2,3-d]pyrimidin-2-yl]-2-(3,5-difluorophenyl)ethyl]-2-[(2S,4S)-9-cyclopropyl-7,8-diazatricyclo[4.3.0.0^2,^4]nona-1(6),8-dien-7-yl]acetamide] | 15 | > 20000 |
| Cc1cc(C2CCC(F)(F)CC2)nc2nc([C@H](Cc3cc(F)cc(F)c3)NC(=O)Cn3nc(C(F)F)c4c3C(F)(F)[C@@H]3C[C@H]43)n(-c3ccc(Cl)c4c(NS(C)(=O)=O)nn(CCN5C[C@@H](F)C[C@H](F)C5)c34)c(=O)c12 (atropisomer, axis not shown; (P)) [Example 446, N-[(1S)-1-[(3P)-3-(4-chloro-1-{2-[(3S,5S)-3,5-difluoropiperidin-1-yl]ethyl}-3-methanesulfonamido-1H-indazol-7-yl)-7-(4,4-difluorocyclohexyl)-5-methyl-4-oxo-3H,4H-pyrido[2,3-d]pyrimidin-2-yl]-2-(3,5-difluorophenyl)ethyl]-2-[(2S,4R)-9-(difluoromethyl)-5,5-difluoro-7,8-diazatricyclo[4.3.0.0^2,^4]nona-1(6),8-dien-7-yl]acetamide] | 9 | > 20000 |
| COCCCn1nc(NS(C)(=O)=O)c2c(Cl)ccc(-n3c([C@H](Cc4cc(F)cc(F)c4)NC(=O)Cn4nc(C(F)F)c5c4C(F)(F)[C@@H]4C[C@H]54)nc4nc(C5CCC(F)(F)CC5)cc(CN5C[C@@H](C)O[C@@H](C)C5)c4c3=O)c21 (atropisomer, axis not shown; (P)) [Example 448, N-[(1S)-1-[(3P)-3-[4-chloro-3-methanesulfonamido-1-(3-methoxypropyl)-1H-indazol-7-yl]-7-(4,4-difluorocyclohexyl)-5-{[(2R,6S)-2,6-dimethylmorpholin-4-yl]methyl}-4-oxo-3H,4H-pyrido[2,3-d]pyrimidin-2-yl]-2-(3,5-difluorophenyl)ethyl]-2-[(2S,4R)-9-(difluoromethyl)-5,5-difluoro-7,8-diazatricyclo[4.3.0.0^2,4]nona-1(6),8-dien-7-yl]acetamide] | 9 | > 20000 |
| COCCCn1nc(NS(C)(=O)=O)c2c(Cl)ccc(-n3c([C@H](Cc4cc(F)cc(F)c4)NC(=O)Cn4nc(C(F)F)c5c4C(F)(F)[C@@H]4C[C@H]54)nc4nc(C5CCC(F)(F)CC5)cc(CF)c4c3=O)c21 (atropisomer, axis not shown; (P)) [Example 449, N-[(1S)-1-[(3P)-3-[4-chloro-3-methanesulfonamido-1-(3-methoxypropyl)-1H-indazol-7-yl]-7-(4,4-difluorocyclohexyl)-5-(fluoromethyl)-4-oxo-3H,4H-pyrido[2,3-d]pyrimidin-2-yl]-2-(3,5-difluorophenyl)ethyl]-2-[(2S,4R)-9-(difluoromethyl)-5,5-difluoro-7,8-diazatricyclo[4.3.0.0^2,4]nona-1(6),8-dien-7-yl]acetamide] | 9 | > 20000 |
| Cc1cc(C2CCC(F)(F)CC2)nc2nc([C@H](Cc3cc(F)cc(F)c3)NC(=O)Cn3nc(C(F)F)c4c3C(F)(F)[C@@H]3C[C@H]43)n(-c3ccc(Cl)c4c(NS(C)(=O)=O)nn(CCN5C[C@@H](C)OC(C)(C)C5)c34)c(=O)c12 (atropisomer, axis not shown; (P)) [Example 454, N-[(1S)-1-[(3P)-3-(4-chloro-3-methanesulfonamido-1-{2-[(6R)-2,2,6-trimethylmorpholin-4-yl]ethyl}-1H-indazol-7-yl)-7-(4,4-difluorocyclohexyl)-5-methyl-4-oxo-3H, 4H-pyrido[2,3-d]pyrimidin-2-yl]-2-(3,5-difluorophenyl)ethyl]-2-[(2S,4R)-9-(difluoromethyl)-5,5-difluoro-7,8-diazatricyclo[4.3.0.0^2,^4]nona-1(6),8-dien-7-yl]acetamide] | 10 | > 20000 |
| Cc1cc(C2CCC(F)(F)CC2)nc2nc([C@H](Cc3cc(F)cc(F)c3)NC(=O)Cn3nc(C4CC4)c4c3C[C@@H]3C[C@H]43)n(-c3ccc(Cl)c4c(NS(C)(=O)=O)nn(CCN5CCO[C@@H](C(C)C)C5)c34)c(=O)c12 (atropisomer, axis not shown; (P)) [Example 456, N-[(1S)-1-[(3P)-3-(4-chloro-3-methanesulfonamido-1-{2-[(2S)-2-(propan-2-yl)morpholin-4-yl]ethyl}-1H-indazol-7-yl)-7-(4,4-difluorocyclohexyl)-5-methyl-4-oxo-3H,4H-pyrido[2,3-d]pyrimidin-2-yl]-2-(3,5-difluorophenyl)ethyl]-2-[(2S,4S)-9-cyclopropyl-7,8-diazatricyclo[4.3.0.0^2,^4]nona-1(6),8-dien-7-yl]acetamide] | 10 | > 20000 |
| Cc1cc(C2CCC(F)(F)CC2)nc2nc([C@H](Cc3cc(F)cc(F)c3)NC(=O)Cn3nc(C4CC4)c4c3C[C@@H]3C[C@H]43)n(-c3ccc(Cl)c4c(NS(C)(=O)=O)nn(CCN5CCO[C@H](C(C)C)C5)c34)c(=O)c12 (atropisomer, axis not shown; (P)) [Example 457, N-[(1S)-1-[(3P)-3-(4-chloro-3-methanesulfonamido-1-{2-[(2R)-2-(propan-2-yl)morpholin-4-yl]ethyl}-1H-indazol-7-yl)-7-(4,4-difluorocyclohexyl)-5-methyl-4-oxo-3H,4H-pyrido[2,3-d]pyrimidin-2-yl]-2-(3,5-difluorophenyl)ethyl]-2-[(2S,4S)-9-cyclopropyl-7,8-diazatricyclo[4.3.0.0^2,^4]nona-1(6),8-dien-7-yl]acetamide] | 7 | > 20000 |
| Cc1cc(C2CCC(F)(F)CC2)nc2nc([C@H](Cc3cc(F)cc(F)c3)NC(=O)Cn3nc(C4CC4)c4c3C[C@@H]3C[C@H]43)n(-c3ccc(Cl)c4c(NS(C)(=O)=O)nn(CCN5C[C@H](C)OC(C)(C)C5)c34)c(=O)c12 (atropisomer, axis not shown; (P)) [Example 458, N-[(1S)-1-[(3P)-3-(4-chloro-3-methanesulfonamido-1-{2-[(6S)-2,2,6-trimethylmorpholin-4-yl]ethyl}-1H-indazol-7-yl)-7-(4,4-difluorocyclohexyl)-5-methyl-4-oxo-3H,4H-pyrido[2,3-d]pyrimidin-2-yl]-2-(3,5-difluorophenyl)ethyl]-2-[(2S,4S)-9-cyclopropyl-7,8-diazatricyclo[4.3.0.0^2,^4]nona-1(6),8-dien-7-yl]acetamide] | 7 | > 20000 |
